Source: the kinase profiling compilation of Christmann-Franck et al. (2016)

Key:
Assay in all cases: radiometric filter-binding kinase assay
[1] = molecular target: ULK2 (human) (UniProt Q8IYT8)
[2] = molecular target: STK33 (human) (UniProt Q9BYT3)
[3] = molecular target: SIK2 (human) (UniProt Q9H0K1)
[4] = molecular target: DDR2 (human) (UniProt Q16832)
[5] = molecular target: CDK9 CCNT1 (human) (UniProt P50750+O60563)
[6] = molecular target: ZAP70 (human) (UniProt P43403)
[7] = molecular target: PRKCG (human) (UniProt P05129)
[8] = molecular target: MAPKAPK3 (human) (UniProt Q16644)
[9] = molecular target: TTBK2 (human) (UniProt Q6IQ55)
[10] = molecular target: MAP4K3 (human) (UniProt Q8IVH8)
[11] = molecular target: ULK1 (human) (UniProt O75385)
[12] = molecular target: TSSK1B (human) (UniProt Q9BXA7)
[13] = molecular target: TLK1 (human) (UniProt Q9UKI8)
[14] = molecular target: STK16 (human) (UniProt O75716)
[15] = molecular target: TESK1 (human) (UniProt Q15569)
[16] = system: PRKAA1 or PRKAA2 (rat); settings: accession and sequence are those of the human protein
[17] = molecular target: CSNK1G2 (human) (UniProt P78368)
[18] = molecular target: WNK1 (human) (UniProt Q9H4A3)
[19] = molecular target: TTBK1 (human) (UniProt Q5TCY1)
[20] = molecular target: SIK3 (human) (UniProt Q9Y2K2)
[21] = molecular target: IRAK1 (human) (UniProt P51617)
[22] = molecular target: ABL1 (human) (UniProt P00519)
[23] = molecular target: EIF2AK3 (human) (UniProt Q9NZJ5)
[24] = molecular target: TEK (human) (UniProt Q02763)
[25] = system: OXSR1 (human), O95747 [T185E]
[26] = molecular target: PTK6 (human) (UniProt Q13882)
[27] = molecular target: STK24 (human) (UniProt Q9Y6E0)
[28] = molecular target: MAP4K5 (human) (UniProt Q9Y4K4)
[29] = molecular target: PDGFRA (human) (UniProt P16234)
[30] = molecular target: PRKAA1 PRKAB2 PRKAG1 (human) (UniProt O43741+Q13131+P54619)
[31] = molecular target: MAPK7 (human) (UniProt Q13164); settings: compound 0.1 µM
[32] = system: TGFBR1 (human), P36897 [T204D]; settings: compound 0.1 µM

WNK1 (human), sequence (Q9H4A3 whole entry, looked up): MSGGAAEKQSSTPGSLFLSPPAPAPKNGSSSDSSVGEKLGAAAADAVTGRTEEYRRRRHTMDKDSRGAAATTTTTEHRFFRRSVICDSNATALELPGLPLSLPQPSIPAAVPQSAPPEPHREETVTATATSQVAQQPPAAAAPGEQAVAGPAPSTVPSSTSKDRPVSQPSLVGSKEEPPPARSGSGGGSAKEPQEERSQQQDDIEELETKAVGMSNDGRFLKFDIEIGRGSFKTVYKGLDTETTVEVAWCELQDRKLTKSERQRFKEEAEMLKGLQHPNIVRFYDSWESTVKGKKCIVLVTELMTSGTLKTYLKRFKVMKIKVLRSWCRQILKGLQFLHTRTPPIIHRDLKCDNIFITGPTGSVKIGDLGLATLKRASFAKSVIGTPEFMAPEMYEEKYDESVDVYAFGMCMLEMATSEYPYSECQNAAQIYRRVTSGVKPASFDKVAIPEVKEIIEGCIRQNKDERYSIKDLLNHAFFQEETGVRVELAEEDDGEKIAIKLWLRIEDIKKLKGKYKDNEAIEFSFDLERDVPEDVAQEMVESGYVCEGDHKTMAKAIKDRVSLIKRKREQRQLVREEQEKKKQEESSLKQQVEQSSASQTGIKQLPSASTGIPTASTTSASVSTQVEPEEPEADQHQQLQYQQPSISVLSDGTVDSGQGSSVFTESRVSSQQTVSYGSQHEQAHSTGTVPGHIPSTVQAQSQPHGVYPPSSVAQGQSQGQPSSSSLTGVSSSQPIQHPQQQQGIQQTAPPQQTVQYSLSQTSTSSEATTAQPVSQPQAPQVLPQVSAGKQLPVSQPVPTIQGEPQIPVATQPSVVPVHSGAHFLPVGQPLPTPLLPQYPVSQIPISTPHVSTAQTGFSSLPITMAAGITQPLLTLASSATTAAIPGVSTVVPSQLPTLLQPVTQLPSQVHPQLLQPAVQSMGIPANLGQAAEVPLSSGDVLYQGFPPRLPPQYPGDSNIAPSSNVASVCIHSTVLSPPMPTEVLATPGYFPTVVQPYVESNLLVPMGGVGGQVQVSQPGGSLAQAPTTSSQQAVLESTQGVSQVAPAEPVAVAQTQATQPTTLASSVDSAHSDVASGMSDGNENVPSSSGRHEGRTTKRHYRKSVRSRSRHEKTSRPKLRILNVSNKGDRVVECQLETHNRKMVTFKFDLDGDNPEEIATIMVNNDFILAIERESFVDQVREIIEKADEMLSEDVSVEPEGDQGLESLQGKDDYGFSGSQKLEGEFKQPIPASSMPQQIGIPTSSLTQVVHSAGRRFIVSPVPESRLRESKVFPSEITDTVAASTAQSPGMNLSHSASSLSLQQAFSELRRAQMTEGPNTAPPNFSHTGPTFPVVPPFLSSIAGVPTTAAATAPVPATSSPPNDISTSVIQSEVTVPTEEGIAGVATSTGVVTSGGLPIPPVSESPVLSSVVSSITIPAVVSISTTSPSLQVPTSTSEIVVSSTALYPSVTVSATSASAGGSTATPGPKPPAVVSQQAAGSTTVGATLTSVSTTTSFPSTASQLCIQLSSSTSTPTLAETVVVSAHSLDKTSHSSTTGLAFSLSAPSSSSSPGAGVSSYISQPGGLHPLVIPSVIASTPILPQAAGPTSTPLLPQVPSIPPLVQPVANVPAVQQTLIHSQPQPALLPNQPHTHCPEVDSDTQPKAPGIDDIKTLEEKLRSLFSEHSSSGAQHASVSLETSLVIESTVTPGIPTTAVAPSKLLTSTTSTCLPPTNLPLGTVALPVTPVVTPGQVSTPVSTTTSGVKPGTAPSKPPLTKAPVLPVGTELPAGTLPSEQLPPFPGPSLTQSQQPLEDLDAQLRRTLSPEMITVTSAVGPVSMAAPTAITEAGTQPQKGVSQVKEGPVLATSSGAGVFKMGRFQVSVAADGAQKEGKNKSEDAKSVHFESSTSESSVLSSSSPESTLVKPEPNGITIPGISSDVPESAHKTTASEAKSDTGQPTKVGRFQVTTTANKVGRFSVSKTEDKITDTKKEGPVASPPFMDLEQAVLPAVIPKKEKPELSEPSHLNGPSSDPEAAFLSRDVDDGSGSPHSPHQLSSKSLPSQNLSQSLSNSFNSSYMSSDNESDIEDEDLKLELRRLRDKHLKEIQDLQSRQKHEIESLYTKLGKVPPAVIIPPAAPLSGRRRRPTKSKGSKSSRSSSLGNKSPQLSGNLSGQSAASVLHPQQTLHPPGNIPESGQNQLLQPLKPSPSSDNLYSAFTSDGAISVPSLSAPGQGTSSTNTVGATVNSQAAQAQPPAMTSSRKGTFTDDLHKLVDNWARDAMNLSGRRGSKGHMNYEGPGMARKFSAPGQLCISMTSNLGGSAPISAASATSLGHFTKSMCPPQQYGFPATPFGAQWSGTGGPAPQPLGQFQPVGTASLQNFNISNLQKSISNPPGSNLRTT
MAP4K5 (human), sequence (Q9Y4K4 whole entry, looked up): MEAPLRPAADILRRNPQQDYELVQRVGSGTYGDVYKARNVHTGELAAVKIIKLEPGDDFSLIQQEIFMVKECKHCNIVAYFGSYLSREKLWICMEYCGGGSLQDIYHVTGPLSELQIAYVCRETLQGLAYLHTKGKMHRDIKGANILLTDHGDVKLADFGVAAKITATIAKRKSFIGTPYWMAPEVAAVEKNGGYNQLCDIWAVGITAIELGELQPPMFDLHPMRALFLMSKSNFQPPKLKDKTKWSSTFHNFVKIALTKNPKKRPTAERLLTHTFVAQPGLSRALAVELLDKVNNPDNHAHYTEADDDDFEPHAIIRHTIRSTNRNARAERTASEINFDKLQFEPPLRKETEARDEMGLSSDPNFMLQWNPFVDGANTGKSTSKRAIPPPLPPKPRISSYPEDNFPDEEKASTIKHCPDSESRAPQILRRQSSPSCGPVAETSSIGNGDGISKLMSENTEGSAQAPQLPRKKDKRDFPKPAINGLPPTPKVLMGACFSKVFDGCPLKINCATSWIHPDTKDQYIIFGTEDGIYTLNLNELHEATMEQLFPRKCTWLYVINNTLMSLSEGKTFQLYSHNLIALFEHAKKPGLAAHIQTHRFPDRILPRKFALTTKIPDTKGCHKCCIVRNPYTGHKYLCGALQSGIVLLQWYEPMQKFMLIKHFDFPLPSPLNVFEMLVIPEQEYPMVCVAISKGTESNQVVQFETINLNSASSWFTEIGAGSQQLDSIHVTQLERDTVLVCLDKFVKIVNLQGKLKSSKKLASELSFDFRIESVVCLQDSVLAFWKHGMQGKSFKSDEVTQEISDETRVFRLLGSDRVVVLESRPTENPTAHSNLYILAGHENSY
TSSK1B (human), sequence (Q9BXA7 whole entry, looked up): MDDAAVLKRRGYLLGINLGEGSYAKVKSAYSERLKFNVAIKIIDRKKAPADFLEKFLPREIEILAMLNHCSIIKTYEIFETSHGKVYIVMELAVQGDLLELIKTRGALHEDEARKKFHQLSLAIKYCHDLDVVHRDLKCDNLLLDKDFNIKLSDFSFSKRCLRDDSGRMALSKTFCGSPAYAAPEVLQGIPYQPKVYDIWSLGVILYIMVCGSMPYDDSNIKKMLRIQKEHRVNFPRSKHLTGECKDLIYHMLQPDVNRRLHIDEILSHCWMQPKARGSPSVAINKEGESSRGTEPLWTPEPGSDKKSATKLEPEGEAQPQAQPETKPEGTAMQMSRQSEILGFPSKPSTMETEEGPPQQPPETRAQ
ULK1 (human), sequence (O75385 whole entry, looked up): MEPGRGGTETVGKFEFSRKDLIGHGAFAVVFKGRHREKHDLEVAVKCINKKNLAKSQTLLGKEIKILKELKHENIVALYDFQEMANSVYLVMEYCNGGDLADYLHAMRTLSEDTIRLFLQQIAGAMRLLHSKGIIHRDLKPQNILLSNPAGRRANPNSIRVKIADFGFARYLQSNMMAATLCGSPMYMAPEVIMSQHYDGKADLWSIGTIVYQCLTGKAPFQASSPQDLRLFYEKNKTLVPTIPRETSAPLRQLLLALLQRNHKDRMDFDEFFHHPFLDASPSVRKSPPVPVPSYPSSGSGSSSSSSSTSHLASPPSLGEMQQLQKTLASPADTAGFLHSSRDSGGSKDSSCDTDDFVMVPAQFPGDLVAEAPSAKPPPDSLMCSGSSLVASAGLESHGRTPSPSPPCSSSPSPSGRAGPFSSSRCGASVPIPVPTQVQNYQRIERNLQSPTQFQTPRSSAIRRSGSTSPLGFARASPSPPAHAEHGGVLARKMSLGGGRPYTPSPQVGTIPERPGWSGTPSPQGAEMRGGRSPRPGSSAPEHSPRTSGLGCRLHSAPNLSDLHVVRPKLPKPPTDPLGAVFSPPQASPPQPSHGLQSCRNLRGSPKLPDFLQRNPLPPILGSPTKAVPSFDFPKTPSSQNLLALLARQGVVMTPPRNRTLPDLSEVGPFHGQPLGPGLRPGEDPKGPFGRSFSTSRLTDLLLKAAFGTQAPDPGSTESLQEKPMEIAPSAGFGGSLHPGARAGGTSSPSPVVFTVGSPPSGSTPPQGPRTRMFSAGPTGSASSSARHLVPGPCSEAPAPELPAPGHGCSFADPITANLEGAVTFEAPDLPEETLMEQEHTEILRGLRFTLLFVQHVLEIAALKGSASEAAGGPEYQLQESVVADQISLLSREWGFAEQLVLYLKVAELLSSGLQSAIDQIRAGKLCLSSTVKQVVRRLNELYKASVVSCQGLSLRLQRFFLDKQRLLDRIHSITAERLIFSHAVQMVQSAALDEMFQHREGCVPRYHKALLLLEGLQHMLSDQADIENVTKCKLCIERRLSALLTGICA
STK16 (human), sequence (O75716 whole entry, looked up): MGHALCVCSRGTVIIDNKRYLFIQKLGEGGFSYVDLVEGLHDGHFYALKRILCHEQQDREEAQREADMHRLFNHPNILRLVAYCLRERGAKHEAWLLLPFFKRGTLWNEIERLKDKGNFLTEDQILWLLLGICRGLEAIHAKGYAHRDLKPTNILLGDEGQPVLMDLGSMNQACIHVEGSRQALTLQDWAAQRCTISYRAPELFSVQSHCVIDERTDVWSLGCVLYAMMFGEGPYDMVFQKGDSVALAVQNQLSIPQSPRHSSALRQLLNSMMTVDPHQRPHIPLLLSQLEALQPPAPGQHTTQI

Compound: Cc1ccc(-c2ccc3c(ccc4sc5c(c43)NC[C@@H](C)NC5=O)n2)cn1
- residual activity ([1]; compound 0.1 µM): 109%
- residual activity ([1]; compound 10.0 µM): 54%
- residual activity ([2]; compound 0.1 µM): 105%
- residual activity ([2]; compound 1.0 µM): 83%
- residual activity ([2]; compound 10.0 µM): 38%
- residual activity ([3]; compound 0.1 µM): 99%
- residual activity ([3]; compound 1.0 µM): 86%
- residual activity ([3]; compound 10.0 µM): 77%
- residual activity ([4]; compound 0.1 µM): 105%
- residual activity ([4]; compound 1.0 µM): 101%
- residual activity ([4]; compound 10.0 µM): 91%
- residual activity ([5]; compound 0.1 µM): 109%
- residual activity ([5]; compound 1.0 µM): 96%
- residual activity ([5]; compound 10.0 µM): 51%
- residual activity ([6]; compound 0.1 µM): 93%
- residual activity ([6]; compound 1.0 µM): 100%
- residual activity ([7]; compound 0.1 µM): 118%
- residual activity ([7]; compound 1.0 µM): 110%
- residual activity ([7]; compound 10.0 µM): 101%
- residual activity ([8]; compound 0.1 µM): 114%
- residual activity ([8]; compound 1.0 µM): 62%
- residual activity ([8]; compound 10.0 µM): 30%
- residual activity ([9]; compound 0.1 µM): 122%
- residual activity ([9]; compound 1.0 µM): 122%
- residual activity ([9]; compound 10.0 µM): 103%
- residual activity ([10]; compound 0.1 µM): 98%
- residual activity ([10]; compound 1.0 µM): 72%
- residual activity ([10]; compound 10.0 µM): 41%
- residual activity ([11]; compound 0.1 µM): 115%
- residual activity ([11]; compound 1.0 µM): 89%
- residual activity ([11]; compound 10.0 µM): 75%
- residual activity ([12]; compound 0.1 µM): 97%
- residual activity ([12]; compound 1.0 µM): 85%
- residual activity ([12]; compound 10.0 µM): 89%
- residual activity ([13]; compound 0.1 µM): 113%
- residual activity ([13]; compound 1.0 µM): 107%
- residual activity ([13]; compound 10.0 µM): 100%
- residual activity ([14]; compound 0.1 µM): 117%
- residual activity ([14]; compound 1.0 µM): 118%
- residual activity ([14]; compound 10.0 µM): 105%
- residual activity ([15]; compound 0.1 µM): 112%
- residual activity ([15]; compound 1.0 µM): 111%
- residual activity ([15]; compound 10.0 µM): 101%
- residual activity ([16]; compound 0.1 µM): 93%
- residual activity ([16]; compound 1.0 µM): 38%
- residual activity ([16]; compound 10.0 µM): 9%
- residual activity ([17]; compound 0.1 µM): 123%
- residual activity ([17]; compound 1.0 µM): 112%
- residual activity ([17]; compound 10.0 µM): 102%
- residual activity ([18]; compound 0.1 µM): 113%
- residual activity ([18]; compound 1.0 µM): 108%
- residual activity ([18]; compound 10.0 µM): 119%
- residual activity ([19]; compound 0.1 µM): 103%
- residual activity ([19]; compound 1.0 µM): 104%
- residual activity ([19]; compound 10.0 µM): 96%
- residual activity ([20]; compound 0.1 µM): 98%
- residual activity ([20]; compound 1.0 µM): 99%
- residual activity ([20]; compound 10.0 µM): 73%
- residual activity ([21]; compound 0.1 µM): 104%
- residual activity ([21]; compound 1.0 µM): 77%
- residual activity ([21]; compound 10.0 µM): 27%
- residual activity ([22]; compound 0.1 µM): 120%
- residual activity ([22]; compound 1.0 µM): 113%
- residual activity ([22]; compound 10.0 µM): 76%
- residual activity ([23]; compound 0.1 µM): 114%
- residual activity ([23]; compound 1.0 µM): 101%
- residual activity ([23]; compound 10.0 µM): 73%
- residual activity ([24]; compound 0.1 µM): 105%
- residual activity ([24]; compound 1.0 µM): 86%
- residual activity ([24]; compound 10.0 µM): 88%
- residual activity ([25]; compound 0.1 µM): 113%
- residual activity ([25]; compound 1.0 µM): 112%
- residual activity ([25]; compound 10.0 µM): 118%
- residual activity ([26]; compound 0.1 µM): 121%
- residual activity ([26]; compound 1.0 µM): 94%
- residual activity ([26]; compound 10.0 µM): 92%
- residual activity ([27]; compound 1.0 µM): 109%
- residual activity ([28]; compound 0.1 µM): 111%
- residual activity ([28]; compound 1.0 µM): 108%
- residual activity ([28]; compound 10.0 µM): 61%
- residual activity ([29]; compound 0.1 µM): 104%
- residual activity ([29]; compound 1.0 µM): 108%
- residual activity ([30]; compound 0.1 µM): 68%
- residual activity ([30]; compound 1.0 µM): 21%
- residual activity ([30]; compound 10.0 µM): 6%

Compound: CN1CCN(CCOc2cc(OC3CCOCC3)c3c(Nc4c(Cl)ccc5c4OCO5)ncnc3c2)CC1
- residual activity ([1]; compound 0.1 µM): 109%
- residual activity [31]: 90%
- residual activity ([2]; compound 0.1 µM): 105%
- residual activity ([3]; compound 0.1 µM): 51%
- residual activity ([4]; compound 0.1 µM): 20%
- residual activity ([5]; compound 0.1 µM): 100%
- residual activity ([6]; compound 0.1 µM): 122%
- residual activity [32]: 90%
- residual activity ([7]; compound 0.1 µM): 103%
- residual activity ([8]; compound 0.1 µM): 92%
- residual activity ([9]; compound 0.1 µM): 94%
- residual activity ([10]; compound 0.1 µM): 85%
- residual activity ([11]; compound 0.1 µM): 99%
- residual activity ([12]; compound 0.1 µM): 115%
- residual activity ([13]; compound 0.1 µM): 107%
- residual activity ([14]; compound 0.1 µM): 108%
- residual activity ([15]; compound 0.1 µM): 94%
- residual activity ([16]; compound 0.1 µM): 99%
- residual activity ([17]; compound 0.1 µM): 107%
- residual activity ([18]; compound 0.1 µM): 99%
- residual activity ([20]; compound 0.1 µM): 92%
- residual activity ([21]; compound 0.1 µM): 84%
- residual activity ([22]; compound 0.1 µM): 26%
- residual activity ([23]; compound 0.1 µM): 111%
- residual activity ([25]; compound 0.1 µM): 102%
- residual activity ([26]; compound 0.1 µM): 31%
- residual activity ([27]; compound 0.1 µM): 102%
- residual activity ([28]; compound 0.1 µM): 70%
- residual activity ([29]; compound 0.1 µM): 101%
- residual activity ([30]; compound 0.1 µM): 102%
